Source: article PMC2816717, “Active Fragments from Pro- and Antiapoptotic BCL-2 Proteins Have Distinct Membrane Behavior Reflecting Their Functional Divergence” (PLoS ONE, 2010)

Legend:
[1] = system: mitochondria isolated from HEK293T cells; experiment: Cytochrome c release assay; assay type: biochemical; conditions: 10 µM peptide, 5 min incubation, 30°C, Western blot of supernatant and pellet
Method: Thus, we tested the ability of the different peptides to induce the release of mitochondrial proteins by incubating them with mitochondria isolated from HEK293T cells, and subsequently assaying the supernatant and pelleted fractions with antibodies for cytochrome c and mitoHSP70. […] On the other hand, incubation of mitochondria with 10 µM BID-α6 induced a slower release, with depletion of the mitochondrial pool of cytochrome c occurring only after 1 hour incubation.
Figure 7 Cytochrome c release assays. Peptides were incubated with isolated mitochondria for the indicated times (min) and the release of cytochrome c was monitored by Western blotting (IB). MitoHSP70 was used as an equal-loading control for the pellet fraction. Control lanes indicate that in the preparation the MOM is intact and cytochrome c is retained within the intermembrane space. A. Cytochrome c release assays for the first (BAX-α5S, BCLX-α5S, BID-α6) and second helices (BAX-α6, BCLX-α6, BID-α7) of the ‘pore domain’ of BAX, BCL-xL and BID using mitochondria isolated from HEK293T cells. B. Cytochrome c release assays for BAX-α5M and BAX-α5MS using mitochondria isolated from MEF and MEK BAX/BAK -/- double knock-out cells (MEF DKO). C. Cytochrome c release assays for the BH3 peptides.
Crude mitochondria were prepared from HEK 293T, mouse embryo fibroblast (MEF) or BAX/BAK double knockout MEF cells (MEF-DKO). In brief, cells were mechanically broken using a 2 ml glass/glass Dounce homogenizer (Kontes) (30 strokes). Homogenates were cleared at 1500 g and mitochondria were spun down at 10 000 g. For cytochrome c release assays, 30 µg of crude mitochondria were resuspended at 1 mg/ml in KCl buffer supplemented with succinate (5 mM) and EGTA (0.5 mM). Peptides (2.5, 10 or 25 µM) were added to the samples and incubations were carried out at 30°C under agitation (300 rpm). At the indicated time points, samples were centrifuged (5 min, 10 000 g, 4°C); supernatants and pellets were recovered and analyzed by immunoblotting for Cytochrome c and mitoHsp70.

[2] = Surface pressure change after peptide injection without lipid monolayer; assay type: physicochemical; conditions: peptide 0.2 µM injected into pure subphase, Hepes buffer pH 7.4, 22.5°C; defined as threshold for significant variation
Method: A number of control experiments were carried out in order to characterize the peptide-lipid monolayer interactions at the air-buffer interface. First, we determined surface pressure-time isotherms of Bax-α5S, a strongly amphipathic and hydrophobic peptide (Table 1), in presence or absence of lipids (POPC/DOPE/CL, see Figure 2). When the peptide was injected into a pure subphase without any lipid monolayer, the corresponding surface pressure change was Δπ = 4.8 mN/m (this value was subsequently defined as a threshold level for significant surface pressure variation). When the same injection was repeated but this time using a lipid monolayer over the aqueous subphase, at an initial surface pressure of 5 mN/m, the surface pressure rose up to Δπ = 32.1 mN/m (Figure 2). […] Then, we measured compression–decompression–recompression isotherms in presence of the peptide. […] After stabilization, the peptide was injected underneath the monolayer, πmax was recorded (32.1 mN/m) and the monolayer was decompressed.
Figure 2 Surface pressure-time isotherms for BAX-α5S with (bold line) or without (light line) POPC/DOPE/CL lipids. […] The initial velocity of surface pressure increase (Vi) was calculated as the slope of the curve (Δπ/Δt) at the time of peptide addition. […]

Sequence: WGRVVALFYFASKLVLKALSTK [BAX-α5S, short peptide of the first helix (α5) of the central hairpin of BAX]
- cytochrome c release, in words [1]: complete depletion of all mitochondrial cytochrome c
- surface pressure change (Δπ) without lipid monolayer [2]: 4.8 mN/m
